Test results taken from patent US5856358A, “Mono- and disulfo-substituted anthraquinones and their use for the treatment of bone matrix disorders” (priority 1995, dated 1999).
Like-named read-outs stand apart in the source and are kept apart here.

Legend:
[1] = Adjuvant arthritis (Freund's complete adjuvant) in the rat: paw volume, radiography, histology; type: in vivo, rat (albino Sprague Dawley); conditions: for Volume increase in the oedema after 15 days, left paw / Volume increase in the oedema after 15 days, right paw: 20 mg/kg/os; for Volume increase in the oedema after 15 days, left paw: left (adjuvant-injected) rear paw, control 252 ± 26; for Volume increase in the oedema after 15 days, right paw: right rear paw, control 77 ± 29
Method: The test evaluates the effect of the compounds anthraquinone-2,6-disulfonicacid and N,N'-diethylanthraquinone-2,6-disulfonamide on rheumatoid arthritis in the rat induced by administration of complete Freund's adjuvant. Diacetylrhein was used as control.
For the test, albino Sprague Dawley rats weighing 200±10 g, were subdivided into four groups of six animals each. All of the compounds were administered orally at a dosage of 20 mg/kg. Arthritis was induced administering all the animals, in the left rear paw, with 5 mg of Freund's complete adjuvant suspended in 0.05 ml of paraffin oil (prior to the treatment, the paw volume of both rear paws was measured). The treatment with the tested products started 5 days after the arthritis induction and was carried out for ten days. Al the end of this time, the animals were killed to effect the analysis of the following evaluation parameters: measurement of the volume of both left and right rear paws; Rx in lateral and antero-posterior position of the tibio-tarsal articulation of the left paw; histology evaluation of the articulation of both left and right rear paws.

human cathepsin B = target: T1, human cathepsin B (Homo sapiens, UniProt P07858); assay: Effects on human cathepsin B enzymatic activity; type: biochemical
T1 construct: purchased Calbiochem
Method: (§1) Effects on human cathepsin B and L enzymatic activity
(§2) The anthraquinone monosulfonated and disulfonated compounds were dissolved in distilled water whereas the derivatives thereof were dissolved in dimethylsulfoxide. The concentration of the tested product was added to the reaction mixture in a volume of 100 μl.
(§3) Composition of the reaction mixture: 0.005M acetate buffer pH 6.0+2 mM cysteine+1 mM EDTA; Enzyme 1 U/ml (cathepsin B or L) (Calbiochem); substrate 0.2 mM Z-Phe-Arg-AMC (Novabiochem) final reaction volume 2 ml; temperature 25° C.; observation time for cathepsin B: 2 minutes; for L: 8 minutes. This is a fluorimetric determination wherein the excitation wavelength was 380 nm, the emission one being instead 460 nm. Fluorescence was read by means of a Perkin-Elmer spectrophotometer mod. LS-3B.
Anthraquinone-2,6-disulfonic acid: 1-5-10 μM
Anthraquinone-1,5-disulfonic acid: 1-5-10 μM
N,N'-(p-Ethoxyphenyl)-2,6-anthraquinone-disulfonamide: 1-10 μM.

[2] = tested on: Chinese hamster ovary (CHO) cells; assay: Test of induction of chromosomal aberrations; type: cell-based; conditions: for Metaphases with aberrations: + S-9; for Aberrations complex (C) / Aberrations simple (S) / Aberrations S + C: 100 metaphases
Method: The clastogenetic effect of rhein and of 2,6-anthraquinonedisulfonic acid, was evaluated using the test of the induction of chromosomal aberrations in cell cultures of chinese hamster ovary (CHO). In this test, the cell line was treated with the tested substances and with suitable controls, in the presence of a metabolic activation system for four hours. After that, the cell in growth exponential phase were treated with colchicine (Colcemid^R) for 90 minutes, so as to obtain a significant number of cells in metaphase and to recover them for the preparation of the chromosome suspension. As the positive standard, cyclophosphamide was used (1-5-10-12.5-25 μg/ml).
The toxicity of the tested compounds was evaluated by means of the assay of the efficiency of plating, treating the cells for four hours, then seeding them at a concentration of 200 cells/5 ml of fresh culture medium.
On the ground of the results obtained by means of this test, dosages were selected for the treatment in the test of induction of chromosomal aberrations, so as not to exceed, with the highest dosage, 50% toxicity levels.
The chromosomal aberrations were recorded describing the type of structural damage. The numeric aberrations and gaps were discarded. Metaphases showing a good chromosomal opening, a good staining and an acceptable chromosome number (20±2) were selected. For statistical evaluations of the results, the quadratic Chi test was used.

human cathepsin L = target: T2, human cathepsin L (Homo sapiens, UniProt P07711); assay: Effects on human cathepsin L enzymatic activity; type: biochemical
T2 construct: purchased Calbiochem
T2 sequence (P07711 114-288 limits assumed): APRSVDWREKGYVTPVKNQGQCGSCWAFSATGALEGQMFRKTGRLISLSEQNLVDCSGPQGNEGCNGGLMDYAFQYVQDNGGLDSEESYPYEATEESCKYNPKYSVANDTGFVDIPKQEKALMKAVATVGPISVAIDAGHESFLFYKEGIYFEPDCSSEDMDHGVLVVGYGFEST
T2 sequence (P07711 292-333 limits assumed): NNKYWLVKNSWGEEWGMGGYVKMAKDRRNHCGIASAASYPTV
Method: as §1, §2, §3

[3] = tested on: copper "scavenging" of superoxide anion produced by the hypoxanthine/xanthine oxidase system; assay: Copper "scavenging" effect (superoxide anion from hypoxanthine/xanthine oxidase system, cytochrome C); type: biochemical; conditions: for % Reduction (effect on copper "scavenging" action): hypoxanthine/xanthine oxidase, cytochrome c
From the text: The study involves the production of superoxide anion by means of the hypoxanthine/xanthine oxidase system and the target is the reduction in cytochrome C iron content. […] Copper chelants inhibit such a "scavenging" effect.

cathepsin G = conditions: from man; Raimondi 1982, Zembower 1992; cited from earlier work
elastase = conditions: from man; Raimondi 1982, Zembower 1992; cited from earlier work
[4] = tested on: superoxide anion from NADPH-dependent biological systems; conditions: Mian M. et al. 1987; cited from earlier work
[5] = background art; cited from earlier work
[6] = background art (U.S. Pat. No. 4,244,968); cited from earlier work
ceruloplasmin = conditions: acute phase of arthritis inflammation; background art; cited from earlier work
[7] = 20 mg/kg orally, ten days, right paw
[8] = M (mean of experiments 1-3), read-out: % Inhibition
[9] = experiment n. 1, read-out: % Inhibition
[10] = experiment n. 2, read-out: % Inhibition
[11] = experiment n. 3, read-out: % Inhibition

## O=C1c2ccc(S(=O)(=O)O)cc2C(=O)c2ccc(S(=O)(=O)O)cc21 [2,6-anthraquinonedisulfonic acid]
[1]; 20 mg/kg orally, ten days
  inhibition (reduction) of the increase in the volume of the left rear paw: 18.6%
[1]; [7]
  inhibition of the increase in the volume of the right paw: 67.5%
[1]
  Volume increase in the oedema after 15 days, left paw: 205 ± 41
  Volume increase in the oedema after 15 days, right paw: 25 ± 20
Human cathepsin B; M (mean of experiments 1-3)
  inhibition at 1 µM: 40.7%
  inhibition at 5 µM: 70.1%
  inhibition at 10 µM: 94.9%
Human cathepsin B; experiment n. 1
  inhibition at 1 µM: 43.7%
  inhibition at 5 µM: 68.5%
  inhibition at 10 µM: 98.9%
Human cathepsin B; experiment n. 2
  inhibition at 1 µM: 33.7%
  inhibition at 5 µM: 65.8%
  inhibition at 10 µM: 98.2%
Human cathepsin B; experiment n. 3
  inhibition at 1 µM: 38.5%
  inhibition at 5 µM: 76%
  inhibition at 10 µM: 87.7%
[2]; 50 μg/ml, 100 total metaphases, N.S.
  Metaphases with aberrations: 2
[2]; 100 μg/ml, 100 total metaphases, N.S.
  Metaphases with aberrations: 4
[2]; 150 μg/ml, 100 total metaphases, N.S.
  Metaphases with aberrations: 8
[2]; 200 μg/ml, 100 total metaphases, N.S.
  Metaphases with aberrations: 8
[2]; 250 μg/ml, 100 total metaphases, N.S.
  Metaphases with aberrations: 6
[2]; 50-250 μg/ml
  induction of chromosomal aberrations (in words): induces no chromosomal aberrations
Human cathepsin L; M (mean of tests 1-3)
  inhibition at 1 µM: 35.6%
  inhibition at 10 µM: 94.5%
Human cathepsin L; test n. 1
  inhibition at 1 µM: 39.6%
  inhibition at 10 µM: 92.1%
Human cathepsin L; test n. 2
  inhibition at 1 µM: 31.4%
  inhibition at 10 µM: 96.5%
Human cathepsin L; test n. 3
  inhibition at 1 µM: 35.8%
  inhibition at 10 µM: 94.8%

## CCOc1ccc(NS(=O)(=O)c2ccc3c(c2)C(=O)c2ccc(S(=O)(=O)Nc4ccc(OCC)cc4)cc2C3=O)cc1 [N,N'-(p-Ethoxyphenyl)-2,6-anthraquinonedisulfonamide]
Human cathepsin B; [8]
  inhibition at 1 µM: 19%
  inhibition at 10 µM: 80.2%
Human cathepsin B; [9]
  inhibition at 1 µM: 23.7%
  inhibition at 10 µM: 76.6%
Human cathepsin B; [10]
  inhibition at 1 µM: 18.6%
  inhibition at 10 µM: 80.6%
Human cathepsin B; [11]
  inhibition at 1 µM: 14.8%
  inhibition at 10 µM: 83.4%
Human cathepsin L; M (mean of tests 1-3)
  inhibition at 1 µM: 8.8%
  inhibition at 10 µM: 55.2%
Human cathepsin L; test n. 1
  inhibition at 1 µM: 8.5%
  inhibition at 10 µM: 53.6%
Human cathepsin L; test n. 2
  inhibition at 1 µM: 7.1%
  inhibition at 10 µM: 48.1%
Human cathepsin L; test n. 3
  inhibition at 1 µM: 10.9%
  inhibition at 10 µM: 63.8%

## O=C1c2cccc(S(=O)(=O)O)c2C(=O)c2cccc(S(=O)(=O)O)c21 [1,5-anthraquinonedisulfonic acid, Anthraquinone-1,5-disulfonic acid]
Human cathepsin B; [8]
  inhibition at 1 µM: 3.4%
  inhibition at 5 µM: 9.6%
  inhibition at 10 µM: 44.4%
Human cathepsin B; [9]
  inhibition at 1 µM: 4.1%
  inhibition at 5 µM: 10.3%
  inhibition at 10 µM: 55.1%
Human cathepsin B; [10]
  inhibition at 1 µM: 3.6%
  inhibition at 5 µM: 7.2%
  inhibition at 10 µM: 36.6%
Human cathepsin B; [11]
  inhibition at 1 µM: 2.5%
  inhibition at 5 µM: 11.4%
  inhibition at 10 µM: 41.6%
[3]
  % Reduction (effect on copper "scavenging" action): 4%
Human cathepsin L; M (mean of tests 1-3)
  inhibition at 1 µM: 8.1%
  inhibition at 10 µM: 54.3%
Human cathepsin L; test n. 1
  inhibition at 1 µM: 10.5%
  inhibition at 10 µM: 48.6%
Human cathepsin L; test n. 2
  inhibition at 1 µM: 8.4%
  inhibition at 10 µM: 60.5%
Human cathepsin L; test n. 3
  inhibition at 1 µM: 5.5%
  inhibition at 10 µM: 53.9%

## O=P1(N(CCCl)CCCl)NCCCO1 (centres unmarked) [CPS, Cyclophosphamide]
[2]; 1 μg/ml, 100 total metaphases, N.S.
  Metaphases with aberrations: 10
[2]; 5 μg/ml, 100 total metaphases, P < 0.001
  Metaphases with aberrations: 25
[2]; 10 μg/ml, 32 total metaphases, P < 0.001, control 13 of 220
  Metaphases with aberrations: 12
[2]; CPS 12.5 μg/ml
  Aberrations complex (C): 44
  Aberrations simple (S): 0
[2]; CPS 12.5 μg/ml, P < 0.001
  Aberrations S + C: 44
[2]; CPS 25 μg/ml, P < 0.001, control 12 of 400
  Aberrations S + C: 87
[2]; CPS 25 μg/ml, control 4 of 400
  Aberrations complex (C): 87
[2]; CPS 25 μg/ml, control 8 of 400
  Aberrations simple (S): 0

## O=C1c2ccccc2C(=O)c2c1cccc2S(=O)(=O)O [1-AQ, 1-anthraquinonesulfonic acid]
[3]
  inhibition of copper "scavenging" effect (in words): nearly inactive
  % Reduction (effect on copper "scavenging" action): 3%

## O=C1c2ccccc2C(=O)c2cc(S(=O)(=O)O)ccc21 [2-AQ, 2-anthraquinonesulfonic acid]
[3]
  inhibition of copper "scavenging" effect (in words): nearly inactive
  % Reduction (effect on copper "scavenging" action): 5%

## O=C(O)c1cc(O)c2c(c1)C(=O)c1cccc(O)c1C2=O [Rhein, rhein]
Cathepsin G
  inhibition of cathepsin G activity: inhibits
[2]; doses of 100 and 200 μg/ml
  induction of chromosomal aberrations (in words): positive
[2]; rhein 25 μg/ml
  Aberrations complex (C): 1
  Aberrations simple (S): 1
[2]; rhein 25 μg/ml, N.S.
  Aberrations S + C: 2
[2]; rhein 50 μg/ml
  Aberrations complex (C): 3
  Aberrations simple (S): 1
[2]; rhein 50 μg/ml, N.S.
  Aberrations S + C: 4
[2]; rhein 100 μg/ml
  Aberrations complex (C): 6
  Aberrations simple (S): 3
[2]; rhein 100 μg/ml, P < 0.05
  Aberrations S + C: 9
[2]; rhein 200 μg/ml
  Aberrations complex (C): 5
  Aberrations simple (S): 3
[2]; rhein 200 μg/ml, P < 0.05
  Aberrations S + C: 8
[3]
  inhibition of copper "scavenging" effect (in words): inhibits said effect
  % Reduction (effect on copper "scavenging" action): 45%
elastase
  inhibition of elastase activity: inhibits
[4]
  inhibition of formation and release of the superoxide anion: inhibits the formation and release of the superoxide anion

## CC(=O)Oc1cccc2c1C(=O)c1c(OC(C)=O)cc(C(=O)O)cc1C2=O [Diacetylrhein, diacetylrhein, reference compound]
[1]; 20 mg/kg orally, ten days
  inhibition (reduction) of the increase in the volume of the left rear paw: 8.3%
[1]; [7]
  effect on the increase in the volume of the right paw (in words): complete lack in activity
[1]; 20 mg/kg orally, tibio-tarsal articulation
  formation of fibrous tissue in the articulation (histological examination): remarkably present
[1]
  Volume increase in the oedema after 15 days, left paw: 231 ± 22
  Volume increase in the oedema after 15 days, right paw: 92 ± 30
[5]
  copper chelation: copper chelating agent
[6]
  calcium chelation: calcium chelating agent
ceruloplasmin
  inhibition of the formation of ceruloplasmin: inhibits the formation of ceruloplasmin

## CCNS(=O)(=O)c1ccc2c(c1)C(=O)c1ccc(S(=O)(=O)NCC)cc1C2=O [N,N'-Diethyl-2,6-anthraquinonedisulfonamide]
[1]; 20 mg/kg orally, ten days
  inhibition (reduction) of the increase in the volume of the left rear paw: 21.4%
[1]; [7]
  inhibition of the increase in the volume of the right paw: 62.3%
[1]
  Volume increase in the oedema after 15 days, left paw: 198 ± 31
  Volume increase in the oedema after 15 days, right paw: 29 ± 12
